The source of these data is US12246076B2, “Radiolabeled compounds for in vivo imaging of gastrin-releasing peptide receptor (GRPR) and treatment of GRPR-related disorders” (PROVINCIAL HEALTH SERVICES AUTHORITY, priority 2022, dated 2025).

The target of series [1] is T1, GRPR (Homo sapiens, UniProt P30550).
T1 construct: endogenous in cells; host or cells: PC-3 prostate cancer cells
The series is described as follows: In vitro competition binding assay, displacement of [^125I-Tyr^4]bombesin on GRPR-expressing PC-3 cells. The following applies: n = 2-3, read-out: Binding affinities Ki Mean. On the procedure:
PC-3 cells were seeded at 2×10^5 cells/well in 24-well poly-D-lysine plates 24-48 hours prior to the experiment. The growth medium was replaced by 400 μL of reaction medium (RPMI 1640 containing 2 mg/mL BSA, 4.8 mg/mL HEPES, 1 U/mL penicillin G and 1 μg/mL streptomycin). Cells were incubated for 30-60 min at 37° C. […] The cells were incubated with moderate agitation for 1 h at 27° C., washed twice with ice-cold PBS, harvested by trypsinization, and measured for radioactivity on the gamma counter. Data were analyzed using nonlinear regression (one binding site model for competition assay) with GraphPad Prism 8.
In vitro competition binding assays were performed according to the procedure outlined in Example 1.

The nature of series [2]: in vivo. The following applies: male, NRG, mouse, iv, total radioactivity.
Protocol: (§1) All imaging and biodistribution studies were performed using male NOD.Cg-Rag1^tm1MoM II2rg^tm1WI/SzJ (NRG) mice and conducted according to the guidelines established by the Canadian Council on Animal Care and approved by Animal Ethics Committee of the University of British Columbia. For tumor inoculations, mice were anesthetized by inhalation with 2% isoflurane in oxygen and implanted subcutaneously with 5×10^6 PC-3 cells below the left shoulder. Imaging and biodistribution studies were performed only after tumors grew to 5-8 mm in diameter.
(§2) For PET/CT imaging studies, ˜3-4 MBq of the ^68Ga-labeled tracer was injected through the tail vein. Mice were allowed to recover and roam freely in the cages after injecting the tracer. At 45 min post-injection (p.i.), mice were sedated again and positioned on the scanner. First, a 10 min CT scan was conducted for localization and attenuation correction for reconstruction of PET images, before a 10 min PET image was acquired. Heating pads were used during the entire procedure to keep the mice warm. For ex vivo biodistribution studies, mice were injected with ˜1.5-3 MBq of the ^68Ga-labeled tracer. At 1 h p.i., mice were euthanized, blood was drawn from heart, and organs/tissues of interest were collected, rinsed with PBS, blotted dry, weighed, and counted using an automated gamma counter. The uptake in each organ/tissue was normalized to the injected dose and expressed as the percentage of the injected dose per gram of tissue (% ID/g).
(§3) All imaging and biodistribution studies were performed using male NOD.Cg-Rag1tm1Mom II2rgtm1WjI/SzJ (NRG) mice and conducted according to the guidelines established by the Canadian Council on Animal Care and approved by Animal Ethics Committee of the University of British Columbia. For tumor inoculations, mice were anesthetized by inhalation with 2% isoflurane in oxygen and implanted subcutaneously with 5×10^6 PC-3 cells below the left shoulder. Imaging and biodistribution studies were performed only after tumors grew to 5-8 mm in diameter.
(§4) For PET/CT imaging studies, ˜5 MBq of the ^68Ga-labeled tracer was injected through the tail vein. Mice were allowed to recover and roam freely in the cages after injecting the tracer. At 45 min post-injection (p.i.), mice were sedated again and positioned on the scanner. First, a 10 min CT scan was conducted for localization and attenuation correction for reconstruction of PET images, before a 10 min PET image was acquired. Heating pads were used during the entire procedure to keep the mice warm. For ex vivo biodistribution studies, mice were injected with ˜3 MBq of the 68Ga-labeled tracer. At 1 h p.i., mice were euthanized, blood was drawn from heart, and organs/tissues of interest were collected, rinsed with PBS, blotted dry, weighed, and counted using an automated gamma counter.
Series [3] can be described thus: Ex vivo biodistribution in PC-3 tumor-bearing mice. The conditions noted are these: male, NRG, mouse, iv, total radioactivity, 1 h post-injection, mice bearing PC-3 tumor xenografts, n = 4.
Protocol: as §1, §2, §3, §4
[4] abbreviates: Biodistribution Large Intestine Mean.
[5] abbreviates: Biodistribution Small Intestine Mean.
[6] abbreviates: seminal, Biodistribution Seminal Mean.
Setting [7] is: PC-3 tumor, Biodistribution PC3 tumor Mean.

pKi: −log10 of the molar value. Numbered stars: 1 amine (or outer) side, 2 acyl side, 3 side chain; on linkers, the order of the positions; unused ones are H or OH. Square brackets hold non-standard residues; d marks the D form. Peptide text beside a SMILES is read from it. * marks the point of attachment. DOTA = O=C(O)CN1CCN(CC(=O)O)CCN(CC(=O)*)CCN(CC(=O)O)CC1; Leuψ(CH2N)ThzNH2 = CC(C)C[C@@H](CN1CSC[C@H]1C(N)=O)N*; NMeH = CN[C@@H](Cc1c[nH]cn1)C(=O)O; X1 = O=C(CN1CCC(N[*:1])CC1)[*:2]; Tle = CC(C)(C)[C@H](N)C(=O)O; Thz = O=C(O)[C@@H]1CSCN1 Bounds are passed on as bounds.

T1 sequence (P30550 whole entry): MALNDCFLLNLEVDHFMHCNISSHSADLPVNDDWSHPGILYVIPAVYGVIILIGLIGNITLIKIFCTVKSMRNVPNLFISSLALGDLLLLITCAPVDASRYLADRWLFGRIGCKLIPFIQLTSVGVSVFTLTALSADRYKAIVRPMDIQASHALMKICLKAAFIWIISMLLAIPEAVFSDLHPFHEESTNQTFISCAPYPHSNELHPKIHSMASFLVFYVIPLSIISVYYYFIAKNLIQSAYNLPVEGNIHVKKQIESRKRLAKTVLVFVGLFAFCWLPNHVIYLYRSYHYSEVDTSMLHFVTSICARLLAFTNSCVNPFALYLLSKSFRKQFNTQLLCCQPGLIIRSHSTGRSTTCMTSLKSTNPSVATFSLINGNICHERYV

Usually pKi stands for the negative decadic logarithm of the Ki, by convention in mol/L. Consider `CC(C)C[C@@H](CN1CSC[C@H]1C(N)=O)NC(=O)[C@H](Cc1c[nH]cn1)NC(=O)CNC(=O)[C@@H](NC(=O)[C@H](C)NC(=O)[C@H](Cc1c[nH]c2ccccc12)NC(=O)[C@H](CCC(N)=O)NC(=O)[C@H]1Cc2c([nH]c3ccccc23)CN1C(=O)CN1CCC(NC(=O)CN2CCN(CC(=O)O)CCN(CC(=O)O)CCN(CC(=O)O)CC2)CC1)C(C)C` [LW01061, DOTA-Pip-D-Tpi-Gln-Trp-Ala-Val-Gly-His-Leu-ψ-Thz-NH2], for which the pKi in series [1] was less than 6.40.

Take `CC(C)C[C@H](NC(=O)[C@H](Cc1cnc[nH]1)NC(=O)CNC(=O)[C@@H](NC(=O)[C@H](C)NC(=O)[C@H](Cc1c[nH]c2ccccc12)NC(=O)[C@H](CCC(N)=O)NC(=O)[C@H](N)Cc1ccccc1)C(C)(C)C)C(=O)N1CSC[C@H]1C(N)=O` [LW01080, D-Phe-Gln-Trp-Ala-Tle-Gly-His-Leu-Thz-NH2]: in series [1], the pKi is 8.45.

For the compound `CC(C)C[C@H](NC(=O)[C@H](Cc1cnc[nH]1)NC(=O)CNC(=O)[C@@H](NC(=O)[C@H](C)NC(=O)[C@H](Cc1c[nH]c2ccccc12)NC(=O)[C@H](CCC(N)=O)NC(=O)[C@H](N)Cc1ccccc1)C(C)C)C(=O)N1CSC[C@H]1C(N)=O` [LW01085], the pKi in series [1] was 8.06.

In the case of `CC(C)C[C@H](NC(=O)[C@H](Cc1cnc[nH]1)N(C)C(=O)CNC(=O)[C@@H](NC(=O)[C@H](C)NC(=O)[C@H](Cc1c[nH]c2ccccc12)NC(=O)[C@H](CCC(N)=O)NC(=O)[C@H](N)Cc1ccccc1)C(C)C)C(=O)N1CSC[C@H]1C(N)=O` [LW01088, D-Phe-Gln-Trp-Ala-Val-Gly-NMe-His-Leu-Thz-NH2], the pKi in series [1] was 8.05.

Regarding `CC(C)C[C@H](NC(=O)[C@H](Cc1cnc[nH]1)NC(=O)CNC(=O)[C@@H](NC(=O)[C@H](C)NC(=O)[C@H](Cc1cn(C)c2ccccc12)NC(=O)[C@H](CCC(N)=O)NC(=O)[C@H](N)Cc1ccccc1)C(C)C)C(=O)N1CSC[C@H]1C(N)=O` [LW01136], the pKi in series [1] is 7.45.

Take `CC(C)C[C@H](NC(=O)[C@H](Cc1c[nH]cn1)NC(=O)CNC(=O)[C@@H](NC(=O)[C@H](C)NC(=O)[C@H](Cc1c[nH]c2ccc(F)cc12)NC(=O)[C@H](CCC(N)=O)NC(=O)[C@H](N)Cc1ccccc1)C(C)C)C(=O)N1CSC[C@H]1C(N)=O` [LW01166]: the pKi in series [1] was 7.75.

The term tissue uptake denotes the percentage of the injected dose found per gram of tissue. As for `CC(C)C[C@H](NC(=O)[C@H](Cc1c[nH]cn1)NC(=O)CNC(=O)[C@@H](NC(=O)[C@H](C)NC(=O)[C@H](Cc1c[nH]c2ccccc12)NC(=O)[C@H](CCC(N)=O)NC(=O)[C@@H](Cc1ccccc1)NC(=O)CN1CCC(NC(=O)CN2CCN(CC(=O)O)CCN(CC(=O)O)CCN(CC(=O)O)CC2)CC1)C(C)(C)C)C(=O)N1CSC[C@H]1C(N)=O` [^68Ga-LW01108, metal not drawn], the tissue uptake at 1 h was 1.51 %ID/g in series [2] (Biodistribution Adrenal Mean); 0.59 %ID/g in series [2] (Biodistribution Blood Mean); 0.15 %ID/g in series [2] (Biodistribution Bone Mean); 0.02 %ID/g in series [2] (Biodistribution Brain Mean); 0.06 %ID/g in series [2] (Biodistribution Fat Mean); 0.18 %ID/g in series [2] (Biodistribution Heart Mean). The tissue uptake at 1 h is 2.47 %ID/g in series [2] (Biodistribution Kidneys Mean); 1.31 %ID/g in series [2] (setting [4]); 0.35 %ID/g in series [2] (Biodistribution Liver Mean); 0.49 %ID/g in series [2] (Biodistribution Lungs Mean); 0.17 %ID/g in series [2] (Biodistribution Muscle Mean); 5.9 %ID/g in series [2] (Biodistribution PC3 tumor Mean). Also, the tissue uptake at 1 h came out at 9.32 %ID/g in series [2] (Biodistribution Pancreas Mean); 2.29 %ID/g in series [2] (setting [5]); 0.4 %ID/g in series [2] (Biodistribution Spleen Mean); 0.89 %ID/g in series [2] (Biodistribution Stomach Mean); 0.16 %ID/g in series [2] (Biodistribution Testes Mean); 0.11 %ID/g in series [3] (setting [6]).

For `CC(C)C[C@H](NC(=O)[C@H](Cc1cnc[nH]1)N(C)C(=O)CNC(=O)[C@@H](NC(=O)[C@H](C)NC(=O)[C@H](Cc1c[nH]c2ccccc12)NC(=O)[C@H](CCC(N)=O)NC(=O)[C@@H](Cc1ccccc1)NC(=O)CN1CCC(NC(=O)CN2CCN(CC(=O)O)CCN(CC(=O)O)CCN(CC(=O)O)CC2)CC1)C(C)(C)C)C(=O)N1CSC[C@H]1C(N)=O` [^68Ga-LW01110, metal not drawn], the tissue uptake at 1 h was found to be 1.64 %ID/g in series [2] (Biodistribution Adrenal Mean); 0.69 %ID/g in series [2] (Biodistribution Blood Mean); 0.12 %ID/g in series [2] (Biodistribution Bone Mean); 0.03 %ID/g in series [2] (Biodistribution Brain Mean); 0.09 %ID/g in series [2] (Biodistribution Fat Mean); 0.23 %ID/g in series [2] (Biodistribution Heart Mean). In addition, the tissue uptake at 1 h in series [2] (Biodistribution Kidneys Mean) came to 3.26 %ID/g; in series [2] (setting [4]), 1.27 %ID/g; in series [2] (Biodistribution Liver Mean), 0.41 %ID/g; in series [2] (Biodistribution Lungs Mean), 0.59 %ID/g; in series [2] (Biodistribution Muscle Mean), 0.14 %ID/g; in series [2] (Biodistribution Pancreas Mean) it was 8.99 %ID/g. Besides, the tissue uptake at 1 h in series [2] (setting [5]) was 2.11 %ID/g; in series [2] (Biodistribution Spleen Mean) it was 0.29 %ID/g; in series [2] (Biodistribution Stomach Mean), 0.94 %ID/g; in series [2] (Biodistribution Testes Mean), 0.16 %ID/g; in series [3] (setting [7]) it was 16.6 %ID/g; in series [3] (setting [6]), 0.1 %ID/g.

`CC(C)C[C@H](NC(=O)[C@H](Cc1cnc[nH]1)N(C)C(=O)CNC(=O)[C@@H](NC(=O)[C@H](C)NC(=O)[C@H](Cc1c[nH]c2ccccc12)NC(=O)[C@H](Cc1c[nH]cn1)NC(=O)[C@@H](Cc1ccccc1)NC(=O)CN1CCC(NC(=O)CN2CCN(CC(=O)O)CCN(CC(=O)O)CCN(CC(=O)O)CC2)CC1)C(C)(C)C)C(=O)N1CSC[C@H]1C(N)=O` [^68Ga-LW01142, metal not drawn] ({DOTA}-[X1][dF]HWA[Tle]G[NMeH]L[Thz]-NH2): the tissue uptake at 1 h turned out to be 2.07 %ID/g in series [2] (Biodistribution Adrenal Mean); 6.88 %ID/g in series [2] (Biodistribution Blood Mean); 0.47 %ID/g in series [2] (Biodistribution Bone Mean); 0.15 %ID/g in series [2] (Biodistribution Brain Mean); 0.32 %ID/g in series [2] (Biodistribution Fat Mean); 1.62 %ID/g in series [2] (Biodistribution Heart Mean). In addition, the tissue uptake at 1 h in series [2] (Biodistribution Kidneys Mean) came out at 6.36 %ID/g; in series [2] (setting [4]), 1.07 %ID/g; in series [2] (Biodistribution Liver Mean), 2.88 %ID/g; in series [2] (Biodistribution Lungs Mean) it was 4.59 %ID/g; in series [2] (Biodistribution Muscle Mean) it was 0.52 %ID/g; in series [2] (Biodistribution Pancreas Mean), 4.4 %ID/g. Moreover, the tissue uptake at 1 h worked out at 1.7 %ID/g in series [2] (setting [5]); 0.88 %ID/g in series [2] (Biodistribution Spleen Mean); 0.98 %ID/g in series [2] (Biodistribution Stomach Mean); 1.28 %ID/g in series [2] (Biodistribution Testes Mean); 11.4 %ID/g in series [3] (setting [7]); 0.33 %ID/g in series [3] (setting [6]).

Regarding `CC(C)C[C@@H](CN1CSC[C@H]1C(N)=O)NC(=O)[C@H](Cc1c[nH]cn1)NC(=O)CNC(=O)[C@@H](NC(=O)[C@H](C)NC(=O)[C@H](Cc1c[nH]c2ccccc12)NC(=O)[C@H](CCC(N)=O)NC(=O)[C@@H](Cc1ccccc1)NC(=O)CN1CCC(NC(=O)CN2CCN(CC(=O)O)CCN(CC(=O)O)CCN(CC(=O)O)CC2)CC1)C(C)(C)C` [^68Ga-LW01158, metal not drawn] ({DOTA}-[X1][dF]QWA[Tle]GH-{Leuψ(CH2N)ThzNH2}), the tissue uptake at 1 h in series [2] (Biodistribution Adrenal Mean) amounted to 1.37 %ID/g; in series [2] (Biodistribution Blood Mean), 1.14 %ID/g; in series [2] (Biodistribution Bone Mean), 0.13 %ID/g; in series [2] (Biodistribution Brain Mean), 0.03 %ID/g; in series [2] (Biodistribution Fat Mean), 0.07 %ID/g; in series [2] (Biodistribution Heart Mean), 0.34 %ID/g. Besides, the tissue uptake at 1 h in series [2] (Biodistribution Kidneys Mean) stood at 2.98 %ID/g; in series [2] (setting [4]), 1.41 %ID/g; in series [2] (Biodistribution Liver Mean) it was 4.33 %ID/g; in series [2] (Biodistribution Lungs Mean) it was 1.19 %ID/g; in series [2] (Biodistribution Muscle Mean), 0.2 %ID/g; in series [2] (setting [5]), 2.46 %ID/g. The tissue uptake at 1 h in series [2] (Biodistribution Spleen Mean) was determined as 0.6 %ID/g; in series [2] (Biodistribution Stomach Mean) it was 1.3 %ID/g; in series [2] (Biodistribution Testes Mean), 0.24 %ID/g; in series [3] (setting [7]), 11.2 %ID/g; in series [3] (pancreas, Biodistribution Pancreas Mean), 12 %ID/g; in series [3] (setting [6]) it was 0.15 %ID/g.
